Measurements published in patent publication US20060242739A1, “Plant nucleotide-sugar pyrophosphatase/phosphodiesterase (nppase), method of obtaining same and use of same in the production of assay devices and in the production of transgenic plants” (Universidad Publica De Navarra, priority 2002, published 2006).

Legend:
NPPase from rice leaves = NPPase from rice leaves (Oryza sativa, UniProt Q0X0G2); assay: Kinetic parameters and substrate specificity of the NPPase from rice leaves; settings: substrate of NPPase from rice leaves
Chain of NPPase from rice leaves (Q0X0G2 26-623 limits assumed): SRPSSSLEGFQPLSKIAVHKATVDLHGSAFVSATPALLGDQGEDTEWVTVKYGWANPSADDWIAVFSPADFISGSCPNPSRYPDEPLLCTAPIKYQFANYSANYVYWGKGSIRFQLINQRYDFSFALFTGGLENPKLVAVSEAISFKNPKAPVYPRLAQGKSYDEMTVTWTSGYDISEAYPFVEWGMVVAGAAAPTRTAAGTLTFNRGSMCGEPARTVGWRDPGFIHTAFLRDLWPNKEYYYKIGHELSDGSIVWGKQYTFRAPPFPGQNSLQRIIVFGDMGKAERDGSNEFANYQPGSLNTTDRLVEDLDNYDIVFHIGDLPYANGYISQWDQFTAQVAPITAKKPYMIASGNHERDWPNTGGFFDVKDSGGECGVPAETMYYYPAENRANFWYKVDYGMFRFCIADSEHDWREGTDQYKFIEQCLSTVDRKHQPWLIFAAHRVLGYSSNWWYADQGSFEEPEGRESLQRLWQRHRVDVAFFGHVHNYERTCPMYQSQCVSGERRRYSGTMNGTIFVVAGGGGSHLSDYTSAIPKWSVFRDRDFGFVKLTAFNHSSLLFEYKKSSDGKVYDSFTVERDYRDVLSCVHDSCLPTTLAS

[1] = target: T1, NPPase from barley leaves (Hordeum vulgare, UniProt Q687E1); assay: Enzymatic test of soluble NPPase from barley leaves: kinetic parameters, substrate specificity, effectors; settings: for Vmax: Vmax in % in relation to ADPG, NPPase from barley leaves; for Km: substrate of NPPase from barley leaves; for effect on NPPase activity (inhibition) / hydrolysis by NPPase (substrate recognition): qualitative
T1 sequence (Q687E1 19-368): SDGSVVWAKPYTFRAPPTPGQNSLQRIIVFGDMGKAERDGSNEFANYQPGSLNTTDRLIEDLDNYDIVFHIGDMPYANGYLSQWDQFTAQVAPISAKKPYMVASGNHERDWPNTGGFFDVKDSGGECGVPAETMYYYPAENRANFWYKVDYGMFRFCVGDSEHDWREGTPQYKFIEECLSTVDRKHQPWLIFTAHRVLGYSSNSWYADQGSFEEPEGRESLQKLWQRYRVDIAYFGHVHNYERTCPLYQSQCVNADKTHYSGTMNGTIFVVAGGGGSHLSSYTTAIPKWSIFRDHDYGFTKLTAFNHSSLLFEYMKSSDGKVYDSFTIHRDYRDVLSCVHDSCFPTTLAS

Compound | Vmax [1] | effect on NPPase activity (inhibition) [1] | hydrolysis by NPPase (substrate recognition) [1] | other results
Nc1ncnc2c1ncn2[C@@H]1O[C@H](COP(=O)(O)OS(=O)(=O)O)[C@@H](O)[C@H]1O [APS, adenosine 5′-phosphosulphate] |  |  |  | Vmax (NPPase from rice leaves): 282 μmol min^−1 (mg protein)^−1
O=[N+]([O-])c1ccc(OP(=O)(O)O)cc1 [PNPP] | 100% |  |  | 
Nc1ccn([C@@H]2O[C@H](COP(=O)(O)OP(=O)(O)O[C@H]3O[C@H](CO)[C@@H](O)[C@H](O)[C@H]3O)[C@@H](O)[C@H]2O)c(=O)n1 [CDPG, CDP-glucose] | 114% |  |  | 
ADP-ribose [ADPribose] | 100% |  |  | 
NC(=O)c1ccc[n+]([C@@H]2O[C@H](COP(=O)([O-])OP(=O)(O)OC[C@H]3O[C@@H](n4cnc5c(N)ncnc54)[C@H](OP(=O)(O)O)[C@@H]3O)[C@@H](O)[C@H]2O)c1 [NADP^+] | n.q. |  |  | Km [1]: n.q.
Nc1ncnc2c1ncn2[C@@H]1O[C@H](COP(=O)(O)O)[C@@H](O)[C@H]1O [PAP, adenosine-5′-phosphate] | n.q. |  |  | Km [1]: n.q.
arsenate |  | strongly inhibited |  | 
Nc1nc2c(ncn2[C@@H]2O[C@H](COP(=O)(O)OP(=O)(O)O[C@H]3O[C@H](CO)[C@@H](O)[C@H](O)[C@H]3O)[C@@H](O)[C@H]2O)c(=O)[nH]1 [GDP-glucose] |  |  | recognizes | 
[O]=[Mo](=[O])([O-])[O-] [molybdate] |  | strongly inhibited |  | 
Nc1nc2c(ncn2[C@@H]2O[C@H](COP(=O)(O)OP(=O)(O)O[C@H]3O[C@H](CO)[C@@H](O)[C@H](O)[C@@H]3O)[C@@H](O)[C@H]2O)c(=O)[nH]1 [GDPmannose, GDP-mannose] | 30% |  |  | 
O=C[C@H](O)[C@@H](O)[C@H](O)[C@H](O)COP(=O)(O)O [G6P, glucose-6-phosphate] |  |  | does not hydrolyse | 
Nc1ncnc2c1ncn2[C@@H]1O[C@H](COP(=O)(O)O)[C@@H](O)[C@H]1O [AMP] |  | inhibited | does not hydrolyse | 
O=P(O)(O)OP(=O)(O)O [PPi, inorganic pyrophosphate] |  |  |  | Vmax (NPPase from rice leaves): 176 μmol min^−1 (mg protein)^−1
Nc1ncnc2c1ncn2[C@@H]1O[C@H](COP(=O)(O)OP(=O)(O)O[C@H]2O[C@H](CO)[C@@H](O)[C@H](O)[C@@H]2O)[C@@H](O)[C@H]1O [ADPmannose, ADP-mannose] | 30% |  |  | 
NC(=O)c1ccc[n+]([C@@H]2O[C@H](COP(=O)(O)OP(=O)(O)OC[C@H]3O[C@@H](n4cnc5c(N)ncnc54)[C@H](O)[C@@H]3O)[C@@H](O)[C@H]2O)c1 [NAD^+] | 100% |  |  | 
OCCS [β-mercaptoethanol] |  | not affected |  | 
Nc1ncnc2c1ncn2[C@@H]1O[C@H](COP(=O)(O)OP(=O)(O)O[C@H]2O[C@H](CO)[C@@H](O)[C@H](O)[C@H]2O)[C@@H](O)[C@H]1O [ADPG, ADPglucose] | 100% |  | catalyses the hydrolysis | 
Nc1ncnc2c1ncn2[C@@H]1O[C@H](COP(=O)(O)OP(=O)(O)O)[C@@H](O)[C@H]1O [ADP] | 40% | inhibited |  | 
O=[N+]([O-])c1ccc(OP(=O)(O)Oc2ccc([N+](=O)[O-])cc2)cc1 [bis-PNPP, bis-paranitrophenylphosphate] | 100% |  | hydrolyses | 
O=C(O)[C@H](O)COP(=O)(O)O [3-phosphoglycerate] |  | inhibited | does not hydrolyse | 
